Measured values from ChEMBL document CHEMBL1949623, “Camphorsulfonic acid catalysed facile tandem double Friedlander annulation protocol for the synthesis of phenoxy linked bisquinoline derivatives and discovery of antitubercular agents” (Bioorg Med Chem Lett, 2012).

System: NIH3T3
Experiment: Cytotoxicity against mouse NIH/3T3 cells assessed as cell viability after 48 hrs by MTT assay
Type: cell-based
Settings: NIH3T3, 48 h

| Compound | IC50 [µM] |
| --- | --- |
| Clc1ccc2nc(-c3ccc(Oc4c(-c5cccc(Br)c5)nc5ccc(Cl)cc5c4-c4ccccc4)cc3)cc(-c3ccccc3)c2c1 | 887 |
| Clc1ccc2nc(-c3ccc(Oc4c(-c5ccc(Br)cc5)nc5ccc(Cl)cc5c4-c4ccccc4)cc3)cc(-c3ccccc3)c2c1 | 333 |
